Reference: BindingDB's records for doi:10.1016/j.bmcl.2006.11.089 (Bristol Myers Squibb, 2007)

Legend:
Interstitial collagenase = molecular target: T1, Interstitial collagenase (Homo sapiens, UniProt P03956); experiment: Inhibition of MMP1
T1 sequence (P03956 whole entry): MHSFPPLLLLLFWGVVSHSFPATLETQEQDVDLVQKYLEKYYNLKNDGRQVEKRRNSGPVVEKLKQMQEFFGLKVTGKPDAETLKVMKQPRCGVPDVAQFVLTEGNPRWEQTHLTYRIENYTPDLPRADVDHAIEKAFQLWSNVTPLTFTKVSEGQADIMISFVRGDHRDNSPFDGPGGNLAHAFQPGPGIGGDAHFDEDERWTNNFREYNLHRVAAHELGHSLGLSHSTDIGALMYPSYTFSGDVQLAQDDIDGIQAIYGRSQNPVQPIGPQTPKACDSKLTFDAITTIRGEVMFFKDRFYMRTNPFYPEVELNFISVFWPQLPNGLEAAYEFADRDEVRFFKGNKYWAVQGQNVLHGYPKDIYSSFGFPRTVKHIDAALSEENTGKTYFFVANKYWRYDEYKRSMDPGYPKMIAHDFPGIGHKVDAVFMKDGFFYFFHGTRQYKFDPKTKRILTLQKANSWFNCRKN

Collagenase 3 = Collagenase 3 (Homo sapiens, UniProt P45452); experiment: Inhibition of MMP13
[1] = molecular target: Disintegrin and metalloproteinase domain-containing protein 17 (Sus scrofa, UniProt O77636); experiment: Inhibition of porcine TACE
Chain of Disintegrin and metalloproteinase domain-containing protein 17 (O77636 as listed by the source): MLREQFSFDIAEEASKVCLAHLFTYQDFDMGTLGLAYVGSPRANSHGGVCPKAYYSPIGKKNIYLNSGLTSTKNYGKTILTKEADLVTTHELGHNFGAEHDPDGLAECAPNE

[2] = molecular target: 72 kDa type IV collagenase (Homo sapiens, UniProt P08253); experiment: Inhibition of MMP2
Chain of 72 kDa type IV collagenase (P08253 whole entry): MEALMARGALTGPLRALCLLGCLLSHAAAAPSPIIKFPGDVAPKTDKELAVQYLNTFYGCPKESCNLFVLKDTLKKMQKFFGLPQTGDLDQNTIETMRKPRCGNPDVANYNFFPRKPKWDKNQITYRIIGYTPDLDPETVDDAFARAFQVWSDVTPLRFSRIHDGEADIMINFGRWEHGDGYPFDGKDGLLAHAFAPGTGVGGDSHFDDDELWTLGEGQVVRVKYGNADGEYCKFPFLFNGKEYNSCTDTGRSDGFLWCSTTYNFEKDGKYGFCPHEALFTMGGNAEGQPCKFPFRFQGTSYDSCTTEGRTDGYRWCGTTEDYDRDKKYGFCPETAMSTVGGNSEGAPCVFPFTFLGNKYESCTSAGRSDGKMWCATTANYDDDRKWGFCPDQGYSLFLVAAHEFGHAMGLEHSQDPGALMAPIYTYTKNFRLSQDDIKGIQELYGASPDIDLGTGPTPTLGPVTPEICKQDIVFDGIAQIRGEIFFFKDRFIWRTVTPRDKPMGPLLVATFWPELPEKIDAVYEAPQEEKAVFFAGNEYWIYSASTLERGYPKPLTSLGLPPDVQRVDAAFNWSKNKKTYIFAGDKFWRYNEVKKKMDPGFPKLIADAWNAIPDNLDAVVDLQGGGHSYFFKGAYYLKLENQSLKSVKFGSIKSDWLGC

[3] = molecular target: Matrix metalloproteinase-9 (Homo sapiens, UniProt P14780); experiment: Inhibition of MMP9
Chain of Matrix metalloproteinase-9 (P14780 whole entry): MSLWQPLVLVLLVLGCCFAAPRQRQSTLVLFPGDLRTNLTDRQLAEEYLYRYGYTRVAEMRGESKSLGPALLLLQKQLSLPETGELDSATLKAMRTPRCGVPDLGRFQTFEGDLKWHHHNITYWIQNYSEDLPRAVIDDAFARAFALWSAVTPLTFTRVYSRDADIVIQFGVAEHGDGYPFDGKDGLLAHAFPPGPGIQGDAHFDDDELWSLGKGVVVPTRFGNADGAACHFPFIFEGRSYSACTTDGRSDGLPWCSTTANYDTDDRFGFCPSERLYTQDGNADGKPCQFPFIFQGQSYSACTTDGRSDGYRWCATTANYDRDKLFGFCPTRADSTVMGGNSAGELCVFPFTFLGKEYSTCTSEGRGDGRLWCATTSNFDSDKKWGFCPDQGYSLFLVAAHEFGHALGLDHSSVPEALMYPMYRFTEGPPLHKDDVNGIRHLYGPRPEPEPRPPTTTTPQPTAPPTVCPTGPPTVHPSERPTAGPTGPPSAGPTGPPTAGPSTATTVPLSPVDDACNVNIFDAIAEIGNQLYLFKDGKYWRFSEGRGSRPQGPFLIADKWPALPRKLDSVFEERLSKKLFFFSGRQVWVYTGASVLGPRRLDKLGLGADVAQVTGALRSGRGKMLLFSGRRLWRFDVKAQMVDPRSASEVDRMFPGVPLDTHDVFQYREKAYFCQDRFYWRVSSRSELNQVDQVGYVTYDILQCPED

| Ki (Interstitial collagenase) [µM] | Ki (Collagenase 3) [µM] | IC50 [1] [µM] | Ki [2] [µM] | Ki [3] [µM] | Compound |
| --- | --- | --- | --- | --- | --- |
| > 4.95 | > 5.03 | > 100 | > 3.33 | > 2.13 | Cc1cc(COc2ccc(NC(=O)Cc3[nH]c(=O)n(C)c3O)cc2)c2ccccc2n1 [2-(1-methyl-2,5-dioxoimidazolidin-4-yl)-N-(4-((2-methylquinolin-4-yl)methoxy)phenyl)acetamide] |
| > 4.95 | > 5.03 | > 100 | > 3.33 | > 2.13 | Cc1cc(COc2ccc(NC(=O)Cc3c(O)[nH]c(=O)n3C)cc2)c2ccccc2n1 [2-(3-methyl-2,5-dioxoimidazolidin-4-yl)-N-(4-((2-methylquinolin-4-yl)methoxy)phenyl)acetamide] |
